Results from ChEMBL document CHEMBL4219142, “Discovery of potent DOT1L inhibitors by AlphaLISA based High Throughput Screening assay” (Bioorg Med Chem, 2018).

Columns and labels:
[1] = molecular target: T1, Histone-lysine N-methyltransferase, H3 lysine-79 specific (Homo sapiens, UniProt Q8TEK3); assay: (§1) Inhibition of recombinant human His6-SUMO tagged DOT1L (1 to 416 residues) expressed in Escherichia coli BL21(DE3) at 50 uM using oligonucleosome as substrate pretreated for 15 mins followed by substrate addition measured after 60 mins in presence of [3H]SAM by liquid scintillation counting method relative to control
Target sequence in this assay (Q8TEK3 whole entry, looked up, the tested form may be a part): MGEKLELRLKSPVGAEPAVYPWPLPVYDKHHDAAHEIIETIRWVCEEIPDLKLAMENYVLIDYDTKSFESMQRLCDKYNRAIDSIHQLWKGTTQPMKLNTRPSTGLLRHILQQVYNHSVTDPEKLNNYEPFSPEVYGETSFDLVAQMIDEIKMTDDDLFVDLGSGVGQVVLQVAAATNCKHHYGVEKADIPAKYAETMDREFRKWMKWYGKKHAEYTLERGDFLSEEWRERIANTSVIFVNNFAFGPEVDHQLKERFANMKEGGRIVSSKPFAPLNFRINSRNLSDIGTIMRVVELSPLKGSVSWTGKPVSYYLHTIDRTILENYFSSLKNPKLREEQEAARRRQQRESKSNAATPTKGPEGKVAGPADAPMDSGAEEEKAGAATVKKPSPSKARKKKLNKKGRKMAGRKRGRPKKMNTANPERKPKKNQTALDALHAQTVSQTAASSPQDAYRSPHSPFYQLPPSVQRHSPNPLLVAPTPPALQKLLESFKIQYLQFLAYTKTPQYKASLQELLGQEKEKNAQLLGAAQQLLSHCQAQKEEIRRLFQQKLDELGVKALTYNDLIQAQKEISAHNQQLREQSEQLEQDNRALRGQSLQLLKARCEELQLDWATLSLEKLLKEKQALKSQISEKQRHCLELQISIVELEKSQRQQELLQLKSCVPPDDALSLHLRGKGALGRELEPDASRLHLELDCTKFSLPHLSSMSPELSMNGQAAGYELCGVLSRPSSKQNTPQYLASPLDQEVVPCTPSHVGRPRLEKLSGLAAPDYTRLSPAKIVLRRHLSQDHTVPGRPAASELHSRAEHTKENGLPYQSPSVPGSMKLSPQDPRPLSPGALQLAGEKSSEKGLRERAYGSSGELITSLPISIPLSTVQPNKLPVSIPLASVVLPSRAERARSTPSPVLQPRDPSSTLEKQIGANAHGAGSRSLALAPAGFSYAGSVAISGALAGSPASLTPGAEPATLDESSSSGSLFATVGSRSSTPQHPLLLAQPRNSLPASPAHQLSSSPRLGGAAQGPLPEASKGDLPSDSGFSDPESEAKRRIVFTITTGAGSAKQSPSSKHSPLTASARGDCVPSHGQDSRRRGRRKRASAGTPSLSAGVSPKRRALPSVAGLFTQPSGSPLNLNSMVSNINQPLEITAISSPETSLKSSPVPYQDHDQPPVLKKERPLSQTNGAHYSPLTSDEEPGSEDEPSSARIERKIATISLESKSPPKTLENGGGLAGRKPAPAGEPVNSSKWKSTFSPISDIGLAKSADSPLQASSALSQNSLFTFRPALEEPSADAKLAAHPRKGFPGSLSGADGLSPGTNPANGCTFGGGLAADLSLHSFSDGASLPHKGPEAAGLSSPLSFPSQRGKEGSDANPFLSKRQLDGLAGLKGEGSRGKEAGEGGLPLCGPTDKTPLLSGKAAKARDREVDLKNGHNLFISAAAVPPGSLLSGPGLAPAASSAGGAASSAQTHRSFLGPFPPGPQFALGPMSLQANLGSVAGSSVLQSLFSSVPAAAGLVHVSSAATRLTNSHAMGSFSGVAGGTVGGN

[2] = molecular target: T1, Histone-lysine N-methyltransferase, H3 lysine-79 specific; assay: as §1, with “100” for “50”
Target sequence in this assay (Q8TEK3 whole entry, looked up, the tested form may be a part): as above

[3] = molecular target: T1, Histone-lysine N-methyltransferase, H3 lysine-79 specific; assay: as §1, with “25” for “50”
Target sequence in this assay (Q8TEK3 whole entry, looked up, the tested form may be a part): as above

MV4-11 [4] = assay: Antiproliferative activity against human MV411 cells after 72 hrs by Alamar blue assay; type: functional, cell-based; settings: MV4-11, 72 h
[5] = molecular target: T1, Histone-lysine N-methyltransferase, H3 lysine-79 specific; assay: Binding affinity to recombinant human His6-SUMO tagged DOT1L (1 to 416 residues) expressed in Escherichia coli BL21(DE3) by surface plasmon resonance method
Target sequence in this assay (Q8TEK3 whole entry, the tested form may be a part): as the sequence (Q8TEK3 whole entry, looked up, the tested form may be a part) above

[6] = molecular target: T1, Histone-lysine N-methyltransferase, H3 lysine-79 specific; assay: Inhibition of recombinant human His6-SUMO tagged DOT1L (1 to 416 residues) expressed in Escherichia coli BL21(DE3) using oligonucleosome as substrate pretreated for 15 mins followed by substrate addition measured after 60 mins in presence of [3H]SAM by liquid scintillation counting method
Target sequence in this assay (Q8TEK3 whole entry, the tested form may be a part): as the sequence (Q8TEK3 whole entry, looked up, the tested form may be a part) above

MV4-11 [7] = assay: Induction of apoptosis in human MV411 cells assessed as late apoptotic cells at 12.5 uM after 48 hrs by Annexin-V-FITC/propidium iodide staining based flow cytometric method (reference value: 4.38 to 4.63%); type: functional
MV4-11 [8] = assay: Cell cycle arrest in human MV411 cells assessed as accumulation at G1 phase at 25 uM after 24 hrs by propidium iodide staining based flow cytometric analysis (reference value: 40.62 to 65.56%); type: functional
MV4-11 [9] = assay: Induction of apoptosis in human MV411 cells assessed as viable cells at 25 uM after 48 hrs by Annexin-V-FITC/propidium iodide staining based flow cytometric method (reference value: 88.5 to 94.5%); type: functional; settings: MV4-11, 48 h, read-out: Activity
MV4-11 [10] = assay: Cell cycle arrest in human MV411 cells assessed as accumulation at S phase at 25 uM after 24 hrs by propidium iodide staining based flow cytometric analysis (reference value: 30.25 to 47.5%); type: functional
MV4-11 [11] = assay: Cell cycle arrest in human MV411 cells assessed as accumulation at G2 phase at 25 uM after 24 hrs by propidium iodide staining based flow cytometric analysis (reference value: 4.19 to 11.88%); type: functional
MV4-11 [12] = assay: Cell cycle arrest in human MV411 cells assessed as accumulation at G1 phase after 24 hrs by propidium iodide staining based flow cytometric analysis; type: functional
MV4-11 [13] = assay: Cell cycle arrest in human MV411 cells assessed as accumulation at G2 phase at 12.5 uM after 24 hrs by propidium iodide staining based flow cytometric analysis (reference value: 4.19 to 11.88%); type: functional
MV4-11 [14] = assay: Induction of apoptosis in human MV411 cells assessed as necrotic cells at 12.5 uM after 48 hrs by Annexin-V-FITC/propidium iodide staining based flow cytometric method (Rvb <= 0.08%); type: functional
MV4-11 [15] = assay: Induction of apoptosis in human MV411 cells assessed as early apoptotic cells at 50 uM after 48 hrs by Annexin-V-FITC/propidium iodide staining based flow cytometric method (reference value: 1.15 to […]); type: functional
MV4-11 [16] = assay: Induction of apoptosis in human MV411 cells assessed as early apoptotic cells at 12.5 uM after 48 hrs by Annexin-V-FITC/propidium iodide staining based flow cytometric method (reference value: 1.15 to […]); type: functional
MV4-11 [17] = assay: Induction of apoptosis in human MV411 cells assessed as late apoptotic cells at 25 uM after 48 hrs by Annexin-V-FITC/propidium iodide staining based flow cytometric method (reference value: 4.38 to 4.63%); type: functional
[18] = molecular target: T1, Histone-lysine N-methyltransferase, H3 lysine-79 specific; assay: Inhibition of recombinant human His6-SUMO tagged DOT1L (1 to 416 residues) expressed in Escherichia coli BL21(DE3) using oligonucleosome as substrate measured after 30 mins in presence of SAM by AlphaLISA assay
Target sequence in this assay (Q8TEK3 whole entry, the tested form may be a part): as the sequence (Q8TEK3 whole entry, looked up, the tested form may be a part) above

MV4-11 [19] = assay: Cell cycle arrest in human MV411 cells assessed as accumulation at G1 phase at 50 uM after 24 hrs by propidium iodide staining based flow cytometric analysis (reference value: 40.62 to 65.56%); type: functional
MV4-11 [20] = assay: Cell cycle arrest in human MV411 cells assessed as accumulation at S phase at 50 uM after 24 hrs by propidium iodide staining based flow cytometric analysis (reference value: 30.25 to 47.5%); type: functional
MV4-11 [21] = assay: Induction of apoptosis in human MV411 cells assessed as viable cells at 50 uM after 48 hrs by Annexin-V-FITC/propidium iodide staining based flow cytometric method (reference value: 88.5 to 94.5%); type: functional; settings: MV4-11, 48 h, read-out: Activity
MV4-11 [22] = assay: Cell cycle arrest in human MV411 cells assessed as accumulation at S phase at 12.5 uM after 24 hrs by propidium iodide staining based flow cytometric analysis (reference value: 30.25 to 47.5%); type: functional
MV4-11 [23] = assay: Induction of apoptosis in human MV411 cells assessed as early apoptotic cells at 25 uM after 48 hrs by Annexin-V-FITC/propidium iodide staining based flow cytometric method (reference value: 1.15 to […]); type: functional
MV4-11 [24] = assay: Cell cycle arrest in human MV411 cells assessed as accumulation at G2 phase at 50 uM after 24 hrs by propidium iodide staining based flow cytometric analysis (reference value: 4.19 to 11.88%); type: functional
MV4-11 [25] = assay: Induction of apoptosis in human MV411 cells assessed as necrotic cells at 25 uM after 48 hrs by Annexin-V-FITC/propidium iodide staining based flow cytometric method (Rvb <= 0.08%); type: functional
MV4-11 [26] = assay: Induction of apoptosis in human MV411 cells assessed as late apoptotic cells at 50 uM after 48 hrs by Annexin-V-FITC/propidium iodide staining based flow cytometric method (reference value: 4.38 to 4.63%); type: functional
MV4-11 [27] = assay: Induction of apoptosis in human MV411 cells assessed as necrotic cells at 50 uM after 48 hrs by Annexin-V-FITC/propidium iodide staining based flow cytometric method (Rvb <= 0.08%); type: functional
MV4-11 [28] = assay: Cell cycle arrest in human MV411 cells assessed as accumulation at G1 phase at 12.5 uM after 24 hrs by propidium iodide staining based flow cytometric analysis (reference value: 40.62 to 65.56%); type: functional
MV4-11 [29] = assay: Induction of apoptosis in human MV411 cells assessed as viable cells at 12.5 uM after 48 hrs by Annexin-V-FITC/propidium iodide staining based flow cytometric method (reference value: 88.5 to 94.5%); type: functional; settings: MV4-11, 48 h, read-out: Activity

Compound Fc1cccc(-c2nnc3sc(CCc4ccccc4)nn23)c1 has an inhibition [1] of 43% and an inhibition [2] of 50%.
Compound COc1ccccc1/C=C/c1nn2c(-c3ccc(N(C)C)cc3)nnc2s1 has an inhibition [1] of 53%, an inhibition [2] of 53% and an inhibition [3] of 38.5%.
In the case of C(=C\c1nn2c(N3CCOCC3)nnc2s1)/c1ccco1, the inhibition [1] is reported as 55%, the inhibition [2] is reported as 65% and the inhibition [3] is reported as 45%.
With Cc1occc1-c1nnc2sc(Cc3ccccc3)nn12 the inhibition [1] was 13% and the inhibition [2] was 24%.
With C(=C\c1nn2c(C3CCCCC3)nnc2s1)/c1ccco1 the inhibition [1] was 68%, the inhibition [2] was 72% and the inhibition [3] was 40.2%.
Work on Fc1ccc(-c2nnc3sc(/C=C/c4ccco4)nn23)cc1 yielded an inhibition [1] of 44% and an inhibition [2] of 40%.
With C(=C\c1nn2c(-c3ccccc3)nnc2s1)/c1ccco1 the IC50 (MV4-11 [4]) was 64.7 µM, the inhibition [1] was 79% and the inhibition [2] was 81%. The Kd [5] was 4.78 to 4.87 µM, the inhibition [3] was 79.4% and the IC50 [6] was 7.01 µM.
Fc1cccc(-c2nnc3sc(/C=C/c4ccco4)nn23)c1 showed an inhibition [1] of 22% and an inhibition [2] of 29%.
In the case of C(=C\c1nn2c(-c3ccncc3)nnc2s1)/c1ccco1, the IC50 (MV4-11 [4]) is reported as 66.5 µM, the inhibition [1] is reported as 67% and the inhibition [2] is reported as 82%. The Kd [5] was 7.4 µM, the inhibition [3] was 54% and the IC50 [6] was 13.7 µM.
Work on Cc1cccc(-c2nnc3sc(/C=C/c4ccco4)nn23)c1 yielded an IC50 (MV4-11 [4]) of 124 µM, an inhibition [1] of 69% and an inhibition [2] of 74%. For the same compound, the Kd [5] was 1.21 µM, the inhibition [3] was 66.6% and the IC50 [6] was 9.41 µM.
With c1ccc2c(Cc3nn4c(-c5ccoc5)nnc4s3)cccc2c1 the inhibition [1] was 59%, the inhibition [2] was 77% and the inhibition [3] was 43%.
CN(C)c1ccc(-c2nnc3sc(/C=C/c4ccco4)nn23)cc1 was tested, and the Activity (MV4-11 [7]) was 6.29%, the Activity (MV4-11 [8]) was 70.9% and the IC50 (MV4-11 [4]) was 51.5 µM. The viability at 25 µM (MV4-11 [9]) was 22.2%, the inhibition [1] was 60% and the Activity (MV4-11 [10]) was 25.46%. For the same compound, the Activity (MV4-11 [11]) was 3.64%, the Activity (MV4-11 [12]) was “Dose-dependent effect” and the Activity (MV4-11 [13]) was 4.64%. The Activity (MV4-11 [14]) was 0.05%, the Activity (MV4-11 [15]) was 49.3% and the Activity (MV4-11 [16]) was 2.01%. For the same compound, the Activity (MV4-11 [17]) was 42.4%, the IC50 [18] was 20.9 µM and the inhibition [2] was 73%. The Activity (MV4-11 [19]) was 81.23%, the Activity (MV4-11 [20]) was 17.77% and the viability at 50 µM (MV4-11 [21]) was 0.83%. For the same compound, the Activity (MV4-11 [22]) was 25.96%, the Activity (MV4-11 [23]) was 35.4% and the Kd [5] was 9.3 µM. The Activity (MV4-11 [24]) was 0%, the Activity (MV4-11 [25]) was 0.04% and the Activity (MV4-11 [26]) was 49.8%. For the same compound, the Activity (MV4-11 [27]) was 0.09%, the Activity (MV4-11 [28]) was 69.4% and the inhibition [3] was 56%. The viability at 12.5 µM (MV4-11 [29]) was 91.6% and the IC50 [6] was 20.9 µM.
C(=C\c1nn2c(-c3cc4ccccc4o3)nnc2s1)/c1ccco1 gave an inhibition [1] of 71%, an inhibition [2] of 88% and an inhibition [3] of 9%.
Compound COc1cc(-c2nnc3sc(/C=C/c4ccco4)nn23)cc(OC)c1OC has an inhibition [1] of 53%, an inhibition [2] of 60% and an inhibition [3] of 48.1%.
For COc1cccc(-c2nnc3sc(/C=C/c4ccco4)nn23)c1, the inhibition [1] was 51%, the inhibition [2] was 59% and the inhibition [3] was 48.5%.
Cc1occc1-c1nnc2sc(CCCc3ccccc3)nn12 gave an inhibition [1] of 17% and an inhibition [2] of 41%.
Nc1ncnc2c1ncn2[C@@H]1O[C@H](C[C@@H](N)CC[C@H](N)C(=O)O)[C@@H](O)[C@H]1O [SINEFUNGIN] gave an IC50 [18] of 33.7 µM.
Cc1occc1-c1nnc2sc(CCc3ccccc3)nn12 showed an inhibition [1] of 11% and an inhibition [2] of 27%.
